From patent US10603345B2, “Pharmaceutical composition for treating respiratory disease” (Kunming Institute of Botany, The Chinese Academy of Sciences, priority 2015, dated 2020)

Experiments:
Type in all cases: in vivo
[1] = tested on: inflammatory cell in LPS-induced rat; test: Effect on inflammatory cell and classification in BALF of LPS-induced rat; settings: ig 7 d, dose/kg: DXM 1.5 mg, Test group 1 30 mg, 2 15 mg, 3 7.5 mg, x ± S
Protocol: (§1) Animal source: 190˜220 g male SD rat, from laboratory animal department of Kunming Medical University, License No. SCXK (Dian) 2011-0004.
(§2) Method and route: lipopolysaccharide (LPS) was used to induce a rat airway inflammation model; after intragastrical administration for 7 d at a dose of 10 mL/kg, the animal was sacrificed at the eighth day.
(§3) Sample preparation: all the samples were prepared by using 0.5% carboxymethylcellulose sodium (0.5% CMC-Na).
Group and dose: in Test group 1 and Test group 2, the ratio of picrinine, vallesamine, scholaricine and 19-epischolaricine by weight was 43:16:30:8 and 20:38:30:7, respectively, and the other groups and doses thereof were as described in Example 9.
Test index: Total number of white blood cells (WBCs) and inflammatory cell classification in bronchoalveolar lavage fluid (BALF) were used as indexes.

IL-8 in LPS-induced rat = test: Effect on IL-8 in LPS-induced rat; settings: ig 7 d, dose/kg: DXM 1.5 mg, Test group 1 30 mg, 2 15 mg, 3 7.5 mg, x ± S
Protocol: as §1, §2, §3
Group and dose: in Test group 1 and Test group 2, the ratio of picrinine, vallesamine, scholaricine and 19-epischolaricine by weight was 48:10:30:9 and 12:14:15:6, respectively, and the other groups and doses thereof were as described in Example 9.
Test index: IL-8 in bronchoalveolar lavage fluid (BALF), serum, and homogenate was used as index.

TNF-α in LPS-induced rat = test: Effect on TNF-α in LPS-induced rat; settings: ig 7 d, dose/kg: DXM 1.5 mg, Test group 1 30 mg, 2 15 mg, 3 7.5 mg, x ± S
Protocol: as §1, §2, §3
Group and dose: in Test group 1 and Test group 2, the ratio of picrinine, vallesamine, scholaricine and 19-epischolaricine by weight was, 45:36:7:10 and 10:18:9:2, respectively, and the other groups and doses thereof were as described in Example 9.
Test index: TNF-α in bronchoalveolar lavage fluid (BALF), serum, and homogenate was used as index.

NO in LPS-induced rat = test: Effect on NO in LPS-induced rat; settings: ig 7 d, dose/kg: DXM 1.5 mg, Test group 1 30 mg, 2 15 mg, 3 7.5 mg, x ± S
Protocol: as §1, §2, §3
Group and dose: in Test group 1 and Test group 2, the ratio of picrinine, vallesamine, scholaricine and 19-epischolaricine by weight was 40:30:28:2 and 15:18:26:7, respectively, and the other groups and doses thereof were as described in Example 9.
Test index: NO in bronchoalveolar lavage fluid (BALF), serum, and homogenate was used as index.

SOD in LPS-induced rat = test: Effect on SOD in LPS-induced rat; settings: ig 7 d, dose/kg: DXM 1.5 mg, Test group 1 30 mg, 2 15 mg, 3 7.5 mg, x ± S
Protocol: as §1, §2, §3
Group and dose: in Test group 1 and Test group 2, the ratio of picrinine, vallesamine, scholaricine and 19-epischolaricine by weight was 8:45:29:9 and 20:14:12:7, respectively, and the other groups and doses thereof were as described in Example 9.
Test index: SOD in bronchoalveolar lavage fluid (BALF), serum, and homogenate was used as index.

MDA in LPS-induced rat = test: Effect on MDA in LPS-induced rat; settings: ig 7 d, dose/kg: DXM 1.5 mg, Test group 1 30 mg, 2 15 mg, 3 7.5 mg, x ± S
Text: Group and dose: in Test group 1 and Test group 2, the ratio of picrinine, vallesamine, scholaricine and 19-epischolaricine by weight was 45:6:28:3 and 17:14:9:4, respectively, and the other groups and doses thereof were as described in Example 9.
Test index: MDA in bronchoalveolar lavage fluid (BALF), serum, and homogenate was used as index.

ALB in LPS-induced rat = test: Effect on ALB in LPS-induced rat; settings: ig 7 d, dose/kg: DXM 1.5 mg, Test group 1 30 mg, 2 15 mg, 3 7.5 mg
Protocol: as §1, §2, §3
Group and dose: in Test group 1 and Test group 2, the ratio of picrinine, vallesamine, scholaricine and 19-epischolaricine by weight was 36:38:7:1 and 16:15:14:5, respectively, and the other groups and doses thereof were as described in Example 9.
Test index: ALB in bronchoalveolar lavage fluid (BALF), and serum was used as index.

AKP in LPS-induced rat = test: Effect on AKP in LPS-induced rat; settings: ig 7 d, dose/kg: DXM 1.5 mg, Test group 1 30 mg, 2 15 mg, 3 7.5 mg
Protocol: as §1, §2, §3
Group and dose: in Test group 1 and Test group 2, the ratio of picrinine, vallesamine, scholaricine and 19-epischolaricine by weight was 8:25:30:9 and 12:10:9:2, respectively, and the other groups and doses thereof were as described in Example 9.
Test index: AKP in bronchoalveolar lavage fluid (BALF), and serum was used as index.

LDH in LPS-induced rat = test: Effect on LDH in LPS-induced rat; settings: ig 7 d, dose/kg: DXM 1.5 mg, Test group 1 30 mg, 2 15 mg, 3 7.5 mg
Protocol: as §1, §2, §3
Group and dose: in Test group 1 and Test group 2, the ratio of picrinine, vallesamine, scholaricine and 19-epischolaricine by weight was 10:28:15:8 and 10:7:7:2, respectively, and the other groups and doses thereof were as described in Example 9.
Test index: LDH in bronchoalveolar lavage fluid (BALF), and serum was used as index.

C[C@@H]1C[C@H]2[C@@H]3CCC4=CC(=O)C=C[C@]4(C)[C@@]3(F)[C@@H](O)C[C@]2(C)[C@@]1(O)C(=O)CO [DXM, dexamethasone]
BALF cell classification AM (alveolar macrophage) [1]: 52.5 ± 7.0 % | BALF cell classification L (lymphocyte) [1]: 9.3 ± 5.0^ % | BALF cell classification M (monocyte) [1]: 28.9 ± 6.20 % | BALF cell classification N (neutrophil) [1]: 8.2 ± 2.9 % | WBC [1]: 3.35 ± 1.89 × 10^5/ml | IL-8 BALF (IL-8 in LPS-induced rat; BALF): 24.62 ± 12.42 pg/mL | IL-8 lung tissue (IL-8 in LPS-induced rat; lung tissue homogenate): 60.62 ± 20.11 pg/mL | IL-8 serum (IL-8 in LPS-induced rat; serum): 29.62 ± 12.13 pg/mL | TNF-a BALF (TNF-α in LPS-induced rat; BALF): 11.28 ± 4.51 pg/mL | TNF-a lung tissue (TNF-α in LPS-induced rat; lung tissue homogenate): 152.11 ± 37.64 pg/mL | TNF-a Serum (TNF-α in LPS-induced rat; serum): 5.11 ± 1.67 pg/mL | NO BALF (NO in LPS-induced rat; BALF): 13.52 ± 4.17 µmol/L | NO Lung tissue (NO in LPS-induced rat; lung tissue homogenate): 18.35 ± 5.30 µmol/L | NO Serum (NO in LPS-induced rat; serum): 27.20 ± 7.67 µmol/L | SOD BALF (SOD in LPS-induced rat; BALF): 63.35 ± 13.45 U/mL | SOD Lung tissue (SOD in LPS-induced rat; lung tissue homogenate): 92.25 ± 8.88 U/mL | SOD Serum (SOD in LPS-induced rat; serum): 307.6 ± 97.7 U/mL | MDA lung tissue (MDA in LPS-induced rat; lung tissue homogenate): 1.61 ± 0.71 nmol/mL | MDA Serum (MDA in LPS-induced rat; serum): 4.21 ± 1.49 nmol/mL | ALB BALF (ALB in LPS-induced rat; BALF): 0.18 ± 0.07 g/L | ALB Serum (ALB in LPS-induced rat; serum): 19.4 ± 1.4 g/L | AKP BALF (AKP in LPS-induced rat; BALF): 29.0 ± 5.9 U/L | AKP Serum (AKP in LPS-induced rat; serum): 116.1 ± 36.0 U/L | LDH BALF (LDH in LPS-induced rat; BALF): 96.7 ± 25.6 U/L | LDH Serum (LDH in LPS-induced rat; serum): 386.5 ± 92.7 U/L
